This is an account of results in paper PMC3875237, “Fragment-based design for the development of N-domain-selective angiotensin-1-converting enzyme inhibitors” (Clinical Science (London, England : 1979), 2013).

Where two headings read alike, the source gives them in different places.

The target in assay [1] is T1, ACE N-domain (wild-type) (Homo sapiens, UniProt P12821).
T1 construct: Assays were performed on wild-type N-domain, C-domain and N-domain S2 mutants; made in house; host or cells: CHO (Chinese-hamster ovary) cells
Description: continuous fluorogenic (Abz)-FRK(Dnp)P-OH ACE inhibition assay, wild-type N-domain. The format is biochemical. The conditions noted are these: for Fold selectivity Ki (C/N): C-domain Ki / wild-type N-domain Ki. The procedure:
(§1) Parent molecule RXP407 and compound 33RE were dissolved in sterile distilled water to yield stock solutions of 10 mM and subsequently serially diluted in assay buffer (50 mM Hepes, pH 6.8, 200 mM NaCl and 10 μM ZnSO4). Assays were performed on wild-type N-domain, C-domain and N-domain S2 mutants Y369F, R381E and YR/FE as described previously. Briefly, 40 nM enzyme was incubated with an equivolume amount of an appropriate concentration range of phosphinic inhibitor at ambient temperature for 5 min. Enzyme-inhibitor solutions were then divided into aliquotes in triplicate 20 μl volumes followed by the addition of 280 μl of fluorogenic substrate (Abz)-FRK(Dnp)P-OH (in assay buffer) to yield a final substrate concentration of 4 or 8 μM. Residual enzyme activity was monitored continuously at λex=320 nm and λem=420 nm using a fluorescence spectrophotometer (Cary Eclipse, Varian). Initial change of fluorescence over time was converted into arbitrary rate units and inhibitor-binding affinities determined using the Dixon method.
(§2) Assessment of inhibitor potential was carried out using a continuous fluorogenic assay (Abz)-FRK(Dnp)P assay.

The target in assay [2] is T2, ACE N-domain double mutant YR/FE (Homo sapiens, UniProt P12821, R410E/Y398F).
T2 construct: N-domain S2 mutants Y369F, R381E and YR/FE
Briefly: continuous fluorogenic (Abz)-FRK(Dnp)P-OH ACE inhibition assay, N-domain S2 double mutant YR/FE. Format: biochemical. The protocol:
as §1, §2

The target of assay [3] is T3, ACE N-domain mutant R381E (Homo sapiens, UniProt P12821, R410E).
T3 construct: N-domain S2 mutants Y369F, R381E and YR/FE
Description: continuous fluorogenic (Abz)-FRK(Dnp)P-OH ACE inhibition assay, N-domain S2 mutant R381E. Format: biochemical. The protocol: as §1, §2

In assay [4] the target is T4, ACE N-domain mutant Y369F (Homo sapiens, UniProt P12821, Y398F).
T4 construct: N-domain S2 mutants Y369F, R381E and YR/FE
Description: continuous fluorogenic (Abz)-FRK(Dnp)P-OH ACE inhibition assay, N-domain S2 mutant Y369F. Format: biochemical. The protocol:
as §1, §2

For assay [5], the target named is T1, ACE N-domain (wild-type). On the set-up: method as in PMID 10200262. Particulars: N-domain over C-domain; cited from earlier work.

T2 sequence (P12821 40-624 Y398F/R410E): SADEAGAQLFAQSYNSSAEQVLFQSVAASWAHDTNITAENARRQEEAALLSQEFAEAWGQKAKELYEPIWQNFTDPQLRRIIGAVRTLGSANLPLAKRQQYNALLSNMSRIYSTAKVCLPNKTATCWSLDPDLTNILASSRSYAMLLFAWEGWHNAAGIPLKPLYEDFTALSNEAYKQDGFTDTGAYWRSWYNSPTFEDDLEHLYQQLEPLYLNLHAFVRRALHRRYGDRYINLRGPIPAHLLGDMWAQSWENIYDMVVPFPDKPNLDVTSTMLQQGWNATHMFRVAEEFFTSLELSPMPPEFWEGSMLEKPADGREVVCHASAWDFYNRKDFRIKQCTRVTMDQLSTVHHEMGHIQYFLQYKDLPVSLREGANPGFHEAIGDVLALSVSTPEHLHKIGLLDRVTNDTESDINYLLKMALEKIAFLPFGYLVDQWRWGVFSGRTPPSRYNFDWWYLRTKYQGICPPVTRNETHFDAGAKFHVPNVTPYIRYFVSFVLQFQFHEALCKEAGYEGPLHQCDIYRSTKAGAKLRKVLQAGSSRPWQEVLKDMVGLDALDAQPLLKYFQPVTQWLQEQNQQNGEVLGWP
T4 sequence (P12821 40-624 Y398F): as the sequence (P12821 40-624 Y398F/R410E) above, with E371R counted along it
T3 sequence (P12821 40-624 R410E): as the sequence (P12821 40-624 Y398F/R410E) above, with F359Y counted along it
T1 sequence (P12821 40-624 limits assumed): as the sequence (P12821 40-624 Y398F/R410E) above, with F359Y, E371R counted along it

In general, Ki refers to a dissociation constant, usually derived from enzyme kinetics or from competition with a known ligand. For `C[C@H](CP(=O)(O)[C@H](Cc1ccccc1)NC(=O)[C@@H](N)Cc1nnn[nH]1)C(=O)N[C@H](C)C(N)=O` [33RE], the Ki at ACE N-domain (wild-type) [1] stood at 11.2 ± 0.74 nM; in assay [2] (N-domain double mutant YR/FE, means±S.E.M.) it was 2790 ± 156 nM; in assay [3] (N-domain mutant R381E, means±S.E.M.), 87 ± 6.29 nM; in assay [4] (N-domain mutant Y369F, means±S.E.M.), 404 ± 17.3 nM. Further, the “Fold selectivity Ki (C/N)” value was determined as 927 fold on ACE N-domain (wild-type) [1], 4 fold in assay [2] (C-domain Ki / YR/FE mutant Ki), 120 fold in assay [3] (C-domain Ki / R381E mutant Ki) and 26 fold in assay [4] (C-domain Ki / Y369F mutant Ki). The “decrease in binding affinity compared with wild-type” value in assay [2] (YR/FE vs wild-type N-domain) amounted to 250 fold; in assay [3] (R381E vs wild-type N-domain), 8 fold; in assay [4] (Y369F vs wild-type N-domain), 36 fold.
Consider `CC(=O)NC(CC(=O)O)C(=O)NC(Cc1ccccc1)P(=O)(O)CC(C)C(=O)NC(C)C(N)=O` (centres unmarked) [RXP407, reference compound], for which, at ACE N-domain (wild-type) [1], the “Fold selectivity Ki (C/N)” value was found to be 2896 fold. For the same molecule, the Ki on ACE N-domain (wild-type) [1] (wild-type N-domain, Dixon method, means±S.E.M., read-out: Ki) was 21 ± 0.27 nM. Besides, the N-selectivity result at ACE N-domain (wild-type) [5] is on record as “approximately three orders of magnitude”.
